Test results taken from patent publication US11053218B2, “3-(1-oxoisoindolin-2-yl)piperidine-2,6-dione derivatives and uses thereof” (Novartis AG, priority 2017, dated 2021).
Counter-ions that a name gives are not always drawn.

Tests used:
IKZF1 = IKZF1 (Homo sapiens, UniProt Q13422+Q96SW2); assay: Prolabel quantification of IKZF1 protein levels in 293GT cells; type: cell-based; conditions: Prolabel assay, read-out: IKZF1 EC50
IKZF2 = IKZF2 (Homo sapiens, UniProt Q96SW2+Q9UKS7); assay: Prolabel quantification of IKZF2 protein levels in 293GT cells; type: cell-based; conditions: 293GT cells; for inhibition at 10 µM: 24 h, read-out: IKZF2 % protein reduction at 10 μM, 24 h; for DC50: Prolabel assay, read-out: IKZF2 EC50
Sequence of IKZF2 (Q9UKS7 whole entry): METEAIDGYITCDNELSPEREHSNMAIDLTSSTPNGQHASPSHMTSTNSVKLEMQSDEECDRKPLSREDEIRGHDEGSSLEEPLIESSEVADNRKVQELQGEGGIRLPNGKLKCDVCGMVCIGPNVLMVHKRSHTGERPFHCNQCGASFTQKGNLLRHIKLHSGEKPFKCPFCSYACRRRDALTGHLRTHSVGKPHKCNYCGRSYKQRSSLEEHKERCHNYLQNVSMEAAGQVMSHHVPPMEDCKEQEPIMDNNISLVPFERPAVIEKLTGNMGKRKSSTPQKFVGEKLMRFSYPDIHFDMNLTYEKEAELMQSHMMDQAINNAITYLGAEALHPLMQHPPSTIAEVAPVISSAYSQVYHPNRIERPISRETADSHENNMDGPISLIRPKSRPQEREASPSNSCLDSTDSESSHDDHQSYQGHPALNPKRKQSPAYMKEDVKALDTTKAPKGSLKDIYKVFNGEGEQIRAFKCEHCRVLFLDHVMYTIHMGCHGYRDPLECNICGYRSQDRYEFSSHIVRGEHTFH
Sequence of IKZF2 (Q96SW2 whole entry): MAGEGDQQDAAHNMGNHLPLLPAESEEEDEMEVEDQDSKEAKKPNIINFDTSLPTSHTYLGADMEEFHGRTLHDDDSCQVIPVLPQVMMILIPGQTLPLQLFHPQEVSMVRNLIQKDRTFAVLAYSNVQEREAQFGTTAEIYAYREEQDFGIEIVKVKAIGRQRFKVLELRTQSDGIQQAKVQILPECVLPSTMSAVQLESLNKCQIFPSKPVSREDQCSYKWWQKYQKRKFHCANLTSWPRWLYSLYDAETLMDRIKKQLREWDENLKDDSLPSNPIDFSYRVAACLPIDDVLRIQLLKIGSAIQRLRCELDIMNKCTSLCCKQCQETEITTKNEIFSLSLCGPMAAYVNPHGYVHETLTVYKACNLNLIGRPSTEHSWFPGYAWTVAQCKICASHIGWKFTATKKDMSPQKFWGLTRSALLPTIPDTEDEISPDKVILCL
Sequence of IKZF2 (Q16531 whole entry partner): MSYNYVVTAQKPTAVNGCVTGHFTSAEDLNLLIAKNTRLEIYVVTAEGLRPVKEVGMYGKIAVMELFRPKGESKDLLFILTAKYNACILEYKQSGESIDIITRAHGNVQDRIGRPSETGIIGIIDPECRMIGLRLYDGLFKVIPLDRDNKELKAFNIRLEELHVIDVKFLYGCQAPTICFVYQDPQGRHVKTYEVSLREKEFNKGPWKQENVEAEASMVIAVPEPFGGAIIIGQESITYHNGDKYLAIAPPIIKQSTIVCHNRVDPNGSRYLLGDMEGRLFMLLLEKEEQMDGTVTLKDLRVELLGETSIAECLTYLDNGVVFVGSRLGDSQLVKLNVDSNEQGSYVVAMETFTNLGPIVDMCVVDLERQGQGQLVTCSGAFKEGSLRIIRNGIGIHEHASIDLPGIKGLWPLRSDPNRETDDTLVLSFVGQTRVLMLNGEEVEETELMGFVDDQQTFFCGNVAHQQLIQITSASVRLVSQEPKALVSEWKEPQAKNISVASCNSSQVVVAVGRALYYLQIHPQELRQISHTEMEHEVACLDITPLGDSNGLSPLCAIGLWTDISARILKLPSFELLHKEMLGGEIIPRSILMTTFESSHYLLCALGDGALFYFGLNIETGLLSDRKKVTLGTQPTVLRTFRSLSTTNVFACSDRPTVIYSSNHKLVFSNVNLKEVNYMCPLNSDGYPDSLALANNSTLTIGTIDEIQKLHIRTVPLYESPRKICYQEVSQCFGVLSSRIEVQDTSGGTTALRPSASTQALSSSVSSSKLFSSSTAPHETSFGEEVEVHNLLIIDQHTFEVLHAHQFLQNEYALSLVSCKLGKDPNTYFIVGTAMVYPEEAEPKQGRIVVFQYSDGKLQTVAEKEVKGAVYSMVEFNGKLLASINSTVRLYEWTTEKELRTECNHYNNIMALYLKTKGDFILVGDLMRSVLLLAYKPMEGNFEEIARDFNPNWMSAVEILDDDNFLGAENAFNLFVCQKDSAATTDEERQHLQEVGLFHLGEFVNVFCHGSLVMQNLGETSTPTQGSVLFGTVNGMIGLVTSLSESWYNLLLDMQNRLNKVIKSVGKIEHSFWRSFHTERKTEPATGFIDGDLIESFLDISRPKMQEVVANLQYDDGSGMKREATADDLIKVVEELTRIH

Sequence of IKZF1 (Q13422 whole entry): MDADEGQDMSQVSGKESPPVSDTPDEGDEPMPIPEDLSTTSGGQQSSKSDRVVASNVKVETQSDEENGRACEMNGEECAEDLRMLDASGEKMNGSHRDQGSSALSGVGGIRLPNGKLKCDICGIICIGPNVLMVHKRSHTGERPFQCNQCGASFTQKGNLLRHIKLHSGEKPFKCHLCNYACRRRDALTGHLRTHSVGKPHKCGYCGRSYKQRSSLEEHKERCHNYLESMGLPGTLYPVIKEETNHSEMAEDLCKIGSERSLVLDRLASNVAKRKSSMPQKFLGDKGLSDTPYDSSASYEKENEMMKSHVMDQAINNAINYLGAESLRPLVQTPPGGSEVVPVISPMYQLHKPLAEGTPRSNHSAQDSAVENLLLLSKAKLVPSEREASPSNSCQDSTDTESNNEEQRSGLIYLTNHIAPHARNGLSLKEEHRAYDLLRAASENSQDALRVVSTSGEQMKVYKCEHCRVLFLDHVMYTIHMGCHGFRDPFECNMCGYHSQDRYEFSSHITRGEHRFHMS
Sequence of IKZF1 (Q96SW2 whole entry): as the sequence (Q96SW2 whole entry) above
Sequence of IKZF1 (Q16531 whole entry partner): as the sequence (Q16531 whole entry partner) above

| SMILES | DC50 (IKZF1) [nM] | inhibition at 10 µM (IKZF2) [%] | DC50 (IKZF2) [nM] |
| --- | --- | --- | --- |
| O=C1CCC(N2Cc3cc(C4CCN(Cc5ccccc5)C4)ccc3C2=O)C(=O)N1 (stereo not drawn) [Compound I-260, 3-(5-(1-benzylpyrrolidin-3-yl)-1-oxoisoindolin-2-yl)piperidine-2,6-dione HC(O)OH Salt] | > 30000 | 20 | > 30000 |
| O=C1CCC(N2Cc3cc(C4C[C@H]5CC[C@@H](C4)N5Cc4ccccc4)ccc3C2=O)C(=O)N1 (stereo partly drawn) [Compound I-265, 3-(5-(8-benzyl-8-azabicyclo[3.2.1]octan-3-yl)-1-oxoisoindolin-2-yl)piperidine-2,6-dione HC(O)OH salt] | > 50000 | 70 | 5 |
| O=C1CCC(N2Cc3cc(C4=CCCNC4)ccc3C2=O)C(=O)N1 (stereo not drawn) [Compound I-282, 3-(1-oxo-5-(1,2,5,6-tetrahydropyridin-3-yl)isoindolin-2-yl)piperidine-2,6-dione] | > 30000 | 0 | > 30000 |
| O=C1CCC(N2Cc3cc(C4CCN(Cc5ccnn5-c5ccccc5)CC4)ccc3C2=O)C(=O)N1 (stereo not drawn) [Compound I-286, 3-(1-oxo-5-(1-((1-phenyl-1H-pyrazol-5-yl)methyl)piperidin-4-yl)isoindolin-2-yl)piperidine-2,6-dione] | > 30000 | 40 | 720 |
| CCOc1ccc(CN2CCC(c3ccc4c(c3)CN(C3CCC(=O)NC3=O)C4=O)CC2)cc1 (stereo not drawn) [Compound I-287, 3-(5-(1-(4-ethoxybenzyl)piperidin-4-yl)-1-oxoisoindolin-2-yl)piperidine-2,6-dione] | > 30000 | 70 | 18 |
| O=C1CCC(N2Cc3cc(C4CCN(Cc5cnn(-c6ccccc6)c5)CC4)ccc3C2=O)C(=O)N1 (stereo not drawn) [Compound I-288, 3-(1-oxo-5-(1-((1-phenyl-1H-pyrazol-4-yl)methyl)piperidin-4-yl)isoindolin-2-yl)piperidine-2,6-dione] | > 30000 | 80 | 12 |
| O=C1CCC(N2Cc3cc(C4CCN(Cc5ccns5)CC4)ccc3C2=O)C(=O)N1 (stereo not drawn) [Compound I-290, 3-(5-(1-(isothiazol-5-ylmethyl)piperidin-4-yl)-1-oxoisoindolin-2-yl)piperidine-2,6-dione] | > 30000 | 60 | 490 |

Second part, the compound after the results:

| DC50 (IKZF1) [nM] | inhibition at 10 µM (IKZF2) [%] | DC50 (IKZF2) [nM] | SMILES |
| --- | --- | --- | --- |
| > 30000 | 70 | 12 | CC(C)Oc1ccc(CN2CCC(c3ccc4c(c3)CN(C3CCC(=O)NC3=O)C4=O)CC2)cn1 (stereo not drawn) [Compound I-285, 3-(5-(1-((6-isopropoxypyridin-3-yl)methyl)piperidin-4-yl)-1-oxoisoindolin-2-yl)piperidine-2,6-dione] |
| > 30000 | 60 | 76 | CC(C)n1nccc1CN1CCC(c2ccc3c(c2)CN(C2CCC(=O)NC2=O)C3=O)CC1 (stereo not drawn) [Compound I-289, 3-(5-(1-((1-isopropyl-1H-pyrazol-5-yl)methyl)piperidin-4-yl)-1-oxoisoindolin-2-yl)piperidine-2,6-dione] |
| 320 | 60 | 140 | CC(C)Oc1cccc(CN2CCC(c3ccc4c(c3)CN(C3CCC(=O)NC3=O)C4=O)CC2)n1 (stereo not drawn) [Compound I-301, 3-(5-(1-((6-isopropoxypyridin-2-yl)methyl)piperidin-4-yl)-1-oxoisoindolin-2-yl)piperidine-2,6-dione] |
